Measurements from patent US20040024024A1, “Aromatic sulfone hydroxamates and their use as protease inhibitors” (priority 2001, published 2004).
Structures can show the parent of a compound that is named as a salt.

Tests used:
Format in all cases: biochemical
[1] = target: T1, Human recombinant MMP-13 (Homo sapiens, UniProt P45452); experiment: In vitro MMP inhibition, Ki determination (fluorogenic substrate II)
T1 construct: made in house; host or cells: baculovirus / insect cells
Protocol: (§1) Several hydroxamates and salts thereof were analyzed in in vitro assays to determine their ability to inhibit the MMP cleavage of peptide substrates. Inhibition (Ki) and IC50 constants were calculated from the assayed hydroxamate-MMP interactions.
(§2) Human recombinant MMP-1, MMP-2, MMP-9, MMP-13, and MMP-14 were used in this assay. All enzymes were prepared in Assignee's laboratories following usual laboratory procedures. Protocols for the preparation and use of these enzymes are available in the scientific literature. See, e.g., Enzyme Nomenclature (Academic Press, San Diego, Calif., 1992) (and the citations therein). See also, Frije et al., J. Biol. Chem., 26(24), 16766-73 (1994).
The expressed proenzyme was first purified over a heparin agarose column, and then over a chelating zinc chloride column. The proenzyme was then activated by APMA for use in the assay. Further details on baculovirus expression systems may be found in, for example, Luckow et al., J. Virol., 67, 4566-79 (1993). See also, O'Reilly et al, Baculovirus Expression Vectors: A Laboratory Manual (W. H. Freeman and Co., New York, N.Y., 1992). See also, King et al., The Baculovirus Expression System: A Laboratory Guide (Chapman & Hall, London, England, 1992).
(§3) All MMPs were activated using 4-aminophenylmercuric acetate (“APMA”, Sigma Chemical, St. Louis, Mo.) or trypsin. MMP-9 also was activated using human recombinant MMP-3 (purified in Assignee's laboratory following standard cloning and purification techniques).
(§4) Two fluorogenic, methoxycoumarin-containing polypeptide substrates were used in the MMP inhibition assays:
(§5) MCA-ArgProLeuGlyLeuDpaAlaArgGluArgNH2 (II)
(§6) Here, “Dpa” is 3-(2,4-dinitrophenyl)-L-2,3-diaminopropionyl group, and “MCA” is 7-methoxycoumarin-4-yl acetyl. Substrate (I) was purchased from Baychem (Redwood City, Calif.), and substrate II was prepared Assignee's laboratory. Substrate I was used in the IC50 determination assays, while substrate II was used in the Ki determination assays. In the absence of MMP inhibitory activity, either substrate is cleaved at the Gly-Leu peptide bond. This cleavage separates the highly fluorogenic peptide from the 2,4-dinitrophenyl quencher, thus resulting in increase of fluorescent intensity.
(§7) The stock solutions of the assayed hydroxamates (or salts thereof) were prepared in 1% dimethyl sulfoxide (DMSO). These stock solutions were diluted in Buffer A (100 mM Tris-HCl, 100 mM NaCl, 10 mM CaCl2, 0.05% polyoxyethylene 23 lauryl ether, pH 7.5) to obtain solutions with different hydroxamate concentrations, i.e., assay solutions with different concentrations of the assayed MMP inhibitory compound. The experiment controls contained the same amount of Buffer A/DMSO as the assayed sample, but contained no hydroxamate (or salt thereof).
(§8) The assays from which the Ki determinations were made were performed as follows. The assayed hydroxamate samples were incubated in separate wells of untreated white polystyrene plates (Nunc Nalgene International, Rochester, N.Y.), and analyzed on a Tecan SpectraFlour Plus plate reader. The excitation wavelength was 330 nm, and the emission wavelength—420 nm. All samples (assayed hydroxamates and controls) were incubated in separate plate wells at room temperature for 1 hr in the presence of 4 μM of MMP substrate (II). In the absence of MMP inhibitory activity, substrate II was cleaved at the Gly-Leu bond resulting in an increase of relative fluorescence. Inhibition was observed as a reduced rate of this increase in relative fluorescence. The various hydroxamates were analyzed using a single low enzyme concentration with a single substrate concentration fixed at or below the Km. This protocol is a modification of method by Knight et al., FEBS Lett., 296(3), 263-266 (1992). Apparent inhibitory constants were determined by non-linear regression of reaction velocity as a function of inhibitor and enzyme concentration using Morrison's equation, as described by Kuzmic, Anal. Biochem. 286, 45-50 (2000). […]

[2] = target: T2, Human recombinant MMP-14 (Homo sapiens, UniProt P50281); experiment: as above
T2 construct: The catalytic domain enzyme was expressed in E. coli inclusion bodies, solubilized in urea; made in house
Protocol: as §1, §2
The MMP-14 full length cDNA was provided by Dr. Gregory Goldberg of Washington University (St. Louis, Mo.). The catalytic domain enzyme was expressed in E. coli inclusion bodies, solubilized in urea, purified on a preparative […] reverse phase HPLC column, and then refolded in the presence of zinc acetate and purified for use.
as §3, §4, §5, §6, §7
as §8, with “(2000). Modifications were made in the non-linear regression method to allow a common control reaction rate and effective enzyme concentration to be shared between all dose-response relationships on a given assay plate.” for “(2000).”

[3] = target: T3, Human recombinant MMP-9 (Homo sapiens, UniProt P14780); experiment: In vitro MMP inhibition, IC50 determination (fluorogenic substrate I)
T3 construct: made in house; host or cells: MMP-9-transfected HT1080 cells (spent media)
Summary of the method: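 MMP-9 proenzyme purified from transfected HT1080 cell media, activated with APMA or trypsin. Compound dilutions in pH 7.5 Tris/NaCl/CaCl2 buffer with 0.05% polyoxyethylene 23 lauryl ether, incubated at room temperature with 4 μM MCA/Dpa substrate I. IC50 from fluorescence loss (ex 328, em 415 nm) versus inhibitor concentration.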

[4] = substrate (II) 4 μM, 1 hr room temperature, apparent Ki, values in parenthesis
[5] = substrate (I) 4 μM, room temperature, values not in parenthesis

T3 sequence (P14780 107-707 limits assumed): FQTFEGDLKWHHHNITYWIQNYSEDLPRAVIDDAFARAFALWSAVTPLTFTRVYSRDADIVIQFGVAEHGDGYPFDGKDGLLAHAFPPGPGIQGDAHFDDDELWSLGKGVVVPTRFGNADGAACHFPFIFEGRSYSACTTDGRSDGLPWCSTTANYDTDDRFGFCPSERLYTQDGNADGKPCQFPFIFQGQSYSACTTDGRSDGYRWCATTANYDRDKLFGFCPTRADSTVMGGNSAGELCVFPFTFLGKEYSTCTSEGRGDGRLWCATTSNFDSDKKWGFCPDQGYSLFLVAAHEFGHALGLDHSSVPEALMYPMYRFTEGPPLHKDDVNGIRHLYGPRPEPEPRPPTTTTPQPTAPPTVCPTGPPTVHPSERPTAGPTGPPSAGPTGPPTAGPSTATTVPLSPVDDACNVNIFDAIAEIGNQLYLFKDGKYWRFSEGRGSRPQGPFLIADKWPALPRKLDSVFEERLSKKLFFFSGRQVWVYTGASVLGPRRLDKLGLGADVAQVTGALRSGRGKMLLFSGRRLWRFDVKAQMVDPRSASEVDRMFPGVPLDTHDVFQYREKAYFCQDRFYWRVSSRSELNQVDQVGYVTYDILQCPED

| Ki [1, 4] | Ki [2, 4] | IC50 [3, 5] | Ki ([1]; value in parenthesis) | Ki ([2]; value in parenthesis) | IC50 ([3]; value outside parenthesis) | SMILES |
| --- | --- | --- | --- | --- | --- | --- |
| 0.58 nM | > 10000 nM | 413 nM | – | – | – | O=C(NO)C1(S(=O)(=O)c2ccc(OCCc3cccc(-c4ccccn4)c3)cc2)CCOCC1 [Example 40] |
| 1.06 nM | > 10000 nM | 1600 nM | – | – | – | CCN1CCC(C(=O)NO)(S(=O)(=O)c2ccc(OCCCc3nc(-c4ccc(OC(F)(F)F)cc4)no3)cc2)CC1 [Example 41, 1-ethyl-N-hydroxy 4-{[4-(3-{3-[4-(trifluoromethoxy)phenyl]-1,2,4-oxadiazol-5-yl}propoxy)phenyl]sulfonyl}piperidine-4-carboxamide Hydrochloride] |
| 2.29 nM | > 10000 nM | 1970 nM | – | – | – | CCN1CCC(C(=O)NO)(S(=O)(=O)c2ccc(OCCCc3cccc(-c4ccccc4)c3)cc2)CC1 [Example 46] |
| 0.439 nM | > 10000 nM | 4060 nM | – | – | – | O=C(NO)C1(S(=O)(=O)c2ccc(OCCCn3nnc(-c4ccc(OC(F)(F)F)cc4)n3)cc2)CCN(C2CC2)CC1 [Example 49] |
| 1.7 nM | 688 nM | 7980 nM | – | – | – | O=C(NO)C1(S(=O)(=O)c2ccc(OCCCc3nc(-c4ccc(OC(F)(F)F)cc4)no3)cc2)CCN(C2CC2)CC1 [Example 51, 1-cyclopropyl-N-hydroxy-4-{[4-(3-{3-[4-(trifluoromethoxy)phenyl]-1,2,4-oxadiazol-5-yl}propoxy)phenyl]sulfonyl}piperidine-4-carboxamide Hydrochloride] |
| 0.662 nM | > 10000 nM | 75.5 nM | – | – | – | O=C(NO)C1(S(=O)(=O)c2ccc(OCCCn3nnc(-c4ccc(OC(F)(F)F)cc4)n3)cc2)CCN(CC2CC2)CC1 [Example 53] |
| – | – | – | 9.15 nM | > 10000 nM | 2420 nM | O=C(NO)C1(S(=O)(=O)c2ccc(OCCCc3cccc(Cc4ccccc4)c3)cc2)CCOCC1 [Example 98] |
| – | – | – | 0.312 nM | 3480 nM | 1980 nM | O=C(NO)C1(S(=O)(=O)c2ccc(OCCc3cccc(-c4ccncc4)c3)cc2)CCOCC1 [Example 113] |
| – | – | – | 2.24 nM | > 10000 nM | > 10000 nM | O=C(NO)C1(S(=O)(=O)c2ccc(OCCc3cccc(-c4ccccc4F)c3)cc2)CCOCC1 [Example 115] |
| – | – | – | 7.35 nM | > 10000 nM | > 10000 nM | O=C(NO)C1(S(=O)(=O)c2ccc(OCCc3cccc(-c4ccc(F)cc4)c3)cc2)CCOCC1 [Example 123] |
| – | – | – | 0.17 nM | 1670 nM | 963 nM | O=C(NO)C1(S(=O)(=O)c2ccc(OCCc3cccc(-c4cccnc4)c3)cc2)CCOCC1 [Example 125] |
| – | – | – | 16.2 nM | > 10000 nM | > 10000 nM | Cc1ccc(-c2cccc(CCOc3ccc(S(=O)(=O)C4(C(=O)NO)CCOCC4)cc3)c2)cc1 [Example 127] |
| – | – | – | 2.89 nM | > 10000 nM | 4510 nM | O=C(NO)C1(S(=O)(=O)c2ccc(OCCCc3cccc(-c4ccc(F)cc4)c3)cc2)CCN(C2CC2)CC1 [Example 139] |
| – | – | – | 0.895 nM | > 10000 nM | 1690 nM | COCCN1CCC(C(=O)NO)(S(=O)(=O)c2ccc(OCCCc3cccc(-c4ccc(F)cc4)c3)cc2)CC1 [Example 140] |
| – | – | – | 0.587 nM | 5510 nM | 530 nM | O=C(NO)C1(S(=O)(=O)c2ccc(OCCCc3cccc(-c4cccnc4)c3)cc2)CCOCC1 [Example 150] |
| – | – | – | 2.66 nM | > 10000 nM | 72.3 nM | COCCN1CCC(C(=O)NO)(S(=O)(=O)c2ccc(OCCCc3nc(-c4ccccc4OC(F)(F)F)no3)cc2)CC1 [Example 152] |
| – | – | – | 0.95 nM | 3910 nM | 111 nM | O=C(NO)C1(S(=O)(=O)c2ccc(OCCCc3cccc(Br)c3)cc2)CCOCC1 [Example 154] |
| – | – | – | 1.58 nM | 9370 nM | 1170 nM | CCc1ccccc1-c1noc(CCCOc2ccc(S(=O)(=O)C3(C(=O)NO)CCN(CCOC)CC3)cc2)n1 [Example 155] |
| – | – | – | 4.01 nM | > 10000 nM | 2470 nM | O=C(NO)C1(S(=O)(=O)c2ccc(OCCOc3cccc(-c4ccccc4)c3)cc2)CCOCC1 [Example 157] |
| – | – | – | 11.6 nM | > 10000 nM | 2880 nM | O=C(NO)C1(S(=O)(=O)c2ccc(OCCCc3cccc(-c4ccccc4F)c3)cc2)CCOCC1 [Example 163] |
| – | – | – | 2.01 nM | > 10000 nM | 7300 nM | COCCN1CCC(C(=O)NO)(S(=O)(=O)c2ccc(OCCCc3nc(-c4ccc(CC(C)C)cc4)no3)cc2)CC1 [Example 175] |
| – | – | – | 1.71 nM | > 10000 nM | 1170 nM | COCCN1CCC(C(=O)NO)(S(=O)(=O)c2ccc(OCCCc3nnc(-c4ccccc4C(F)(F)F)o3)cc2)CC1 [Example 178] |
| – | – | – | 0.27 nM | 4830 nM | 26.4 nM | O=C(CCCOc1ccc(S(=O)(=O)C2(C(=O)NO)CCOCC2)cc1)Nc1cccc(OC(F)(F)F)c1 [Example 181] |
| – | – | – | 0.212 nM | 5850 nM | 62.1 nM | CC(C)c1cccc(NC(=O)CCCOc2ccc(S(=O)(=O)C3(C(=O)NO)CCOCC3)cc2)c1 [Example 182] |
| – | – | – | 0.37 nM | > 10000 nM | 432 nM | O=C(NO)C1(S(=O)(=O)c2ccc(OCCCc3ccnc(-c4ccccc4)c3)cc2)CCOCC1 [Example 197] |
| – | – | – | 0.355 nM | 7940 nM | 77.7 nM | O=C(CCCc1ccc(S(=O)(=O)C2(C(=O)NO)CCOCC2)cc1)c1cccc(-c2ccccc2)c1 [Example 219] |

| SMILES | Ki [1, 4] | Ki [2, 4] | IC50 [3, 5] | Ki ([1]; value in parenthesis) | Ki ([2]; value in parenthesis) | IC50 ([3]; value outside parenthesis) |
| --- | --- | --- | --- | --- | --- | --- |
| COCCN1CCC(C(=O)NO)(S(=O)(=O)c2ccc(OCCCc3nc(-c4ccc(OC(F)(F)F)cc4)no3)cc2)CC1 [Example 42] | 0.486 nM | > 10000 nM | 382 nM | – | – | – |
| COCCN1CCC(C(=O)NO)(S(=O)(=O)c2ccc(OCCCc3nc(-c4ccc(OC(F)(F)F)cc4)no3)cc2)CC1 [Example 190] | – | – | – | 0.6 nM | > 10000 nM | 1740 nM |
